{"source": "patent US20190045778A1", "about": "“EMULSIFIABLE CONCENTRATES” (priority 2016, published 2019)", "origin": "cited, not measured here", "note": "Read-outs that look alike come from different tables or passages of the source."}
{"molecule": "CN/C(=N\\[N+](=O)[O-])NCc1cnc(Cl)s1", "note": "[clothianidin]", "values": [{"measurement": "Water Solubility", "setting": "at 20° C.", "result": 0.33, "unit": "g/L at 20 °C"}]}
{"molecule": "thiamethoxam", "values": [{"measurement": "Water Solubility", "setting": "at 25° C.", "result": 4.1, "unit": "g/L at 25 °C"}]}
{"molecule": "N#C/N=C1/SCCN1Cc1ccc(Cl)nc1", "note": "[thiacloprid]", "values": [{"measurement": "Water Solubility", "setting": "at 20° C.", "result": 0.1, "unit": "g/L at 20 °C"}]}
